According to patent US20230055961A1, “PENTAFLUOROBENZENESULFONAMIDE DERIVATIVES AND USES THEREOF” (Dunad Therapeutics Ltd., priority 2019, published 2023):

Legend:
MV-4-11 = assay: In vitro IC50 against human cancer cells (Table 11), MV-4-11; format: cell-based; conditions: MV4-11, read-out: Human cancer cell lines (IC50, μM) MV-4-11
K562 = assay: In vitro IC50 against human cancer cells (Table 11), K562; format: cell-based; conditions: read-out: Human cancer cell lines (IC50, μM) K562
MOLM-13 = assay: In vitro IC50 against human cancer cells (Table 11), MOLM-13; format: cell-based; conditions: read-out: Human cancer cell lines (IC50, μM) MOLM-13
tubulin = assay: In vitro % inhibition of tubulin polymerization (Table 12; absorbance at 340 nm, Vmax); format: biochemical
Method: A 96-well half-area clear flat-bottom microplate (Corning© #3697) is pre-heated in a plate reader (Cytation 3, BioTek) at 37° C. for 15 minutes prior to the start of each assay. Kinase buffer (80 mM PIPES pH 6.9, 2 mM MgCl2, 0.5 mM EGTA, 15% glycerol, 1 mM GTP) is prepared from stock solutions and placed on ice. Inhibitors of this application are prepared to 10 μM concentrations in buffer (80 mM PIPES pH 6.9, 2 mM MgCl2, 0.5 mM EGTA, 5% DMSO) from DMSO stock solutions. After the assay plate is pre-warmed, 10 μL of inhibitor or buffer control is added to selected wells. Every assay contained a kinase only negative control for normalization of data, and a known compound positive control. The assay plate is incubated at 37° C. for 3 minutes. During this time, a frozen aliquot of the kinase (10 mg/mL) in buffer (80 mM PIPES pH 6.9, 2 mM MgCl2, 0.5 mM EGTA) is defrosted by placing in a room temperature water bath. Once thawed, 200 μL of the kinase is mixed with 420 μL of the ice-cold kinase buffer (3 mg/mL kinase in 80 mM PIPES, pH 6.9, 2 mM MgCl2, 0.5 mM EGTA, 1 mM GTP, 10.2% glycerol). To a 96-well plate on ice, aliquots of 100 μL kinase is added to each well. From this plate, 90 μL of the kinase is immediately pipetted into all sample wells of the warmed assay plate using a multi-channel pipette. The assay plate is immediately put in the reader at 37° C. and shook for 5 s with orbital shaking at medium speed. The reader records the absorbance at 340 nm every 15 s for 30 min.
The resulting absorbance curves are normalized by subtracting each data point by the absorbance at time 0.

BMX = molecular target: T1, BMX (Homo sapiens, UniProt P51813); assay: In vitro kinase inhibition studies (Table 9), BMX; format: biochemical
T1 sequence (P51813 1-675): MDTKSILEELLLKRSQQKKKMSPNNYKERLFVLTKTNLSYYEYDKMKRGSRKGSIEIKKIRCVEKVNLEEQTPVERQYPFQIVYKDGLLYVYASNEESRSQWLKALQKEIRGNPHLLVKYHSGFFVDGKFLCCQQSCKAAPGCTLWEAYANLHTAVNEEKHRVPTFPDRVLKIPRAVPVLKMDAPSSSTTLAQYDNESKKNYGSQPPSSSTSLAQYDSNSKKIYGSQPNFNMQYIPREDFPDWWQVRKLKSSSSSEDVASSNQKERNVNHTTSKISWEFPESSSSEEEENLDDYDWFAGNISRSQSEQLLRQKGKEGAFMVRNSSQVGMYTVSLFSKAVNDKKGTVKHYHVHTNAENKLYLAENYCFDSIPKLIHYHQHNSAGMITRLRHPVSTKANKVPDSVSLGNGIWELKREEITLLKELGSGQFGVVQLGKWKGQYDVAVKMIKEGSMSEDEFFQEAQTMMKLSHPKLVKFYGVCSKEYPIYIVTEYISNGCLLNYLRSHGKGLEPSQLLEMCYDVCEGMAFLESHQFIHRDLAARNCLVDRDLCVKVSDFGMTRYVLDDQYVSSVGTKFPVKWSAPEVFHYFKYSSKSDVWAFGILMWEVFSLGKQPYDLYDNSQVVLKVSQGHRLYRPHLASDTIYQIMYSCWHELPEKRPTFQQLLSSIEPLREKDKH

[1] = molecular target: T2, His-tagged BTK kinase domain (Homo sapiens, UniProt Q06187); assay: Mass spectral analysis of tryptic digest of His-tagged BTK kinase domain (MSMS of modified peptides); format: binding; conditions: 10 μM compound, 45 min; for C481 labelled by test compound (tryptic digest peptide): cysteine 481
T2 construct: pET-28b(+)-BTK (402-655) vector; made in house; host or cells: E. coli BL21 (DE3) RILP
Method: A protein kinase that is inhibited by compound and/or pharmaceutically acceptable salt of the present disclosure may be subjected to mass spectral analysis to assess the formation of permanent, irreversible covalent adducts. […] Such methods identify permanent, irreversible covalent protein adducts by observing a mass peak that corresponds to the mass of a control sample plus the mass of an irreversible adduct.
The starter cultures were incubated with shaking at 37° C. until cloudy and used to inoculate 1 L of Super broth containing same concentrations of kanamycin and chloramphenicol, 10 mM MgSO4, 5 mM CaCl2), and 0.1% (w/v) glucose. The cultures were incubated under similar conditions to an OD600 of 0.6-0.8. Before induction with 0.5 mM IPTG, the temperature was reduced to 16° C. The cells were harvested by centrifugation following approximately 18 h and frozen in a −80° C. freezer until use.
Cells were thawed in lysis buffer (50 mM HEPES [pH 7.6], 300 mM NaCl, 10 mM MgCl2, 10% [v/v] glycerol, 0.1 mg/mL lysozyme, 50 μg/mL DNase I, and protease inhibitors). Cells were sonicated (30 s on, 60 s off) for 3 repeating cycles. The cell lysates were cleared by centrifugation at 4° C. […] This eluant was cleaved with Ulp1 protease and loaded onto a S200 Superdex FPLC column (GE healthcare) pre-equilibrated with 20 mM HEPES pH 7.4, 150 mM NaCl, and 10% [v/v] glycerol. Pure fractions of His-tagged BTK kinase domain, as judged by SDS-PAGE, were pooled and concentrated using Amicon 10 kDa cutoff concentrators and after aliquoting stored at −80 C until use.
After the incubation time, the reactions were quenched by acetone precipitation and the pellet was re-dissolved in 8 M Urea. The protein was then reduced (5 mM DTT), alkylated (15 mM iodoacetamide) and digested (1 μg trypsin at 37° C. for 4 hours). The digest was then stopped by addition of trifluoroacetic acid, and peptides were removed from gel band by sonicating with increasing amounts of acetonitrile (0%, 30%, & 60%). Peptides were then purified using C18 ziptips, spotted on the MALDI target plate with a-cyano-4-hydroxycinnamic acid as the desorption matrix (10 mg/ml in 0.1% TFA: Acetonitrile 50:50), and analyzed in reflectron mode.

BTK = BTK (Homo sapiens, UniProt Q06187); assay: In vitro BTK inhibition, biochemical IC50 (no preincubation); conditions: Table 7
Method: IC50 Values (nM) for the Inhibition of BTK Activity
In vitro BTK and JAK3 inhibition studies are shown in Table 7 and Table 8 (no preincubation).

FGFR4 = FGFR4 (Homo sapiens, UniProt P22455); assay: In vitro kinase inhibition studies (Table 9), FGFR4; format: biochemical
FGFR1 = FGFR1 (Homo sapiens, UniProt P11362); assay: In vitro kinase inhibition studies (Table 9), FGFR1; format: biochemical
RL cells = assay: IC50 of Ibrutinib analogs against human cancer cells, RL cells (Table 14); format: cell-based; conditions: Homo sapiens, RL, Table 14; RL human non-Hodgkin's lymphoma B cell line; read-out: RL (IC50)
Method: 1×10^4 cells (NHF cells)/well are plated in 96-well assay plates in culture medium. […] After 24 hrs, test compounds and vehicle controls are added to appropriate wells so the final volume is 100p in each well. The cells are cultured for the desired test exposure period (72 hrs) at 37° C. and 5% CO2. The assay plates are removed from 37° C. incubator and 20 μl/well of CellTiter-Blue® Reagent is added. The plates are incubated using standard cell culture conditions for 1-4 hours and the plates are shaken for 10 seconds and record fluorescence at 560/590 nm. […] Therapeutic index=(IC50 human fibroblasts/IC50 […] )

[2] = 10 μM His-BTK KD, tryptic digest MSMS

T2 sequence (Q06187 402-655): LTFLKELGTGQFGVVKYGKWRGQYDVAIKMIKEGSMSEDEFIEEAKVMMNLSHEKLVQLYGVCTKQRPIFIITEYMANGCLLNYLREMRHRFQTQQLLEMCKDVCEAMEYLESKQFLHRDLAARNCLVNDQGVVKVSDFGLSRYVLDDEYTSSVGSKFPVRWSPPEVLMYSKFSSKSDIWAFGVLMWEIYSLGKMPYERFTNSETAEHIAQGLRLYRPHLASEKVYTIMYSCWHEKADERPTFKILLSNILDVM
FGFR4, sequence (P22455 22-802, species assumed): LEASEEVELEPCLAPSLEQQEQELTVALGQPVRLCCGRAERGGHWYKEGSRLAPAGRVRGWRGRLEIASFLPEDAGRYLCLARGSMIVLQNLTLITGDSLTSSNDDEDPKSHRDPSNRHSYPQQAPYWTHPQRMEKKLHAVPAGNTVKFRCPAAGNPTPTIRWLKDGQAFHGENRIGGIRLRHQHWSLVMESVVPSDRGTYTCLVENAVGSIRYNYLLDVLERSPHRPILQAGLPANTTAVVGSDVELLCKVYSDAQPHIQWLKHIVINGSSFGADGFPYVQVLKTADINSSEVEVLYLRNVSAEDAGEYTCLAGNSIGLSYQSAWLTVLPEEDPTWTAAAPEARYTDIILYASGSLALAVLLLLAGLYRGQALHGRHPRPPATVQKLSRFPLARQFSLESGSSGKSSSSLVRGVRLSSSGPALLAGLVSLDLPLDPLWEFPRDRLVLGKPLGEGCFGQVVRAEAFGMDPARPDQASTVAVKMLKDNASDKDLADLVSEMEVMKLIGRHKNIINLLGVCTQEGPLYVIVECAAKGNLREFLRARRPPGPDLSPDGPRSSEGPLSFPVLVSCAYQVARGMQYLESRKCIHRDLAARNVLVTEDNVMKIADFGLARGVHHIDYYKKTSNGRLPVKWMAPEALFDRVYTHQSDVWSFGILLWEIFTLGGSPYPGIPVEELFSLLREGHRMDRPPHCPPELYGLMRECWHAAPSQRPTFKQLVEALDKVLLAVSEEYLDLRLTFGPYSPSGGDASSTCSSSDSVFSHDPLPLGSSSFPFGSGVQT
FGFR1, sequence (P11362 22-822, species assumed): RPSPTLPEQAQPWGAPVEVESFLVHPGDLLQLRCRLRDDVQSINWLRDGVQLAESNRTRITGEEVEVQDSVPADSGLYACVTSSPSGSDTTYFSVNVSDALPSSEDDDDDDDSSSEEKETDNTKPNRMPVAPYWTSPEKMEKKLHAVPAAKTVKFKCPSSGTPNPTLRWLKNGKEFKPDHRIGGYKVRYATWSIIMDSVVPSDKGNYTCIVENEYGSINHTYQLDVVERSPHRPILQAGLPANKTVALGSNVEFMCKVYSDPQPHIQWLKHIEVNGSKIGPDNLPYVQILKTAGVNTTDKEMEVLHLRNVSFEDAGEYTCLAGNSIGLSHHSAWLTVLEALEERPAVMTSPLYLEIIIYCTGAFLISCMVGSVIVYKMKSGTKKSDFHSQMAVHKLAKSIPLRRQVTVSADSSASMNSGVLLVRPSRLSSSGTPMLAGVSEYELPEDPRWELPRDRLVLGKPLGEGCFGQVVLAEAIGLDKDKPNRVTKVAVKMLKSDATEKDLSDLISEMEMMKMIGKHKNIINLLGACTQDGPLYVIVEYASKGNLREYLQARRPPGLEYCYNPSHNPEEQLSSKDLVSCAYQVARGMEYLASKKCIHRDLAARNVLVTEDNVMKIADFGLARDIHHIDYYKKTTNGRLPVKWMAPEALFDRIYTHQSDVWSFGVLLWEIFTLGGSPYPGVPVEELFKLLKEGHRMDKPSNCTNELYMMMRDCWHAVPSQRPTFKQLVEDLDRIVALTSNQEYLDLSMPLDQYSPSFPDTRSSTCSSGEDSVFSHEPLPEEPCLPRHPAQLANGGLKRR
BTK, sequence (Q06187 whole entry, species assumed): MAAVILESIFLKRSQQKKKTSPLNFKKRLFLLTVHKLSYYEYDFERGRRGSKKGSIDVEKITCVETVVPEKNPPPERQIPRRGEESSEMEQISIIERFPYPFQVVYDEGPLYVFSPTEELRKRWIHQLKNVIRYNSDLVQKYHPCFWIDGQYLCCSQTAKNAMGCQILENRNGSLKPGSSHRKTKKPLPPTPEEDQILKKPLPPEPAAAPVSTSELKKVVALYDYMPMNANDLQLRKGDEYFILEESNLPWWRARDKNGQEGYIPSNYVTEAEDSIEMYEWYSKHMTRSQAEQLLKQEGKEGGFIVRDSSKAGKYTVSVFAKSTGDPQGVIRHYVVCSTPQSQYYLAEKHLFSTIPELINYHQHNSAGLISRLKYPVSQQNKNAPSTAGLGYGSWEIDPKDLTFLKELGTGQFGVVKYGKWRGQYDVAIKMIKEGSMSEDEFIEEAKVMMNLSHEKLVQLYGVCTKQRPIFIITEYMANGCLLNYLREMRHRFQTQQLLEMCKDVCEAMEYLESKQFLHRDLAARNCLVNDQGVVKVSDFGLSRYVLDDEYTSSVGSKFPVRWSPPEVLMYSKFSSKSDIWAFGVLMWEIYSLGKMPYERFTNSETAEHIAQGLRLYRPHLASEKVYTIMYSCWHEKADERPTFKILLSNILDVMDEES

## COc1ccc(NS(=O)(=O)c2c(F)c(F)c(F)c(F)c2F)cc1F [Batabulin]
MV-4-11
  IC50: ≤ 0.1 µM
K562
  IC50: ≤ 0.1 µM
MOLM-13
  IC50: ≤ 0.1 µM
tubulin
  % inhibition of tubulin polymerization: C (C > 20%)

## O=S(=O)(Nc1ccc(OC(F)(F)F)c(F)c1)c1c(F)c(F)c(F)c(F)c1F [Compound 4-1, 2,3,4,5,6-pentafluoro-N-(3-fluoro-4-(trifluoromethoxy)phenyl)benzenesulfonamide]
MV-4-11
  IC50: 10 to 100 µM
K562
  IC50: 10 to 100 µM
MOLM-13
  IC50: 10 to 100 µM
tubulin
  % inhibition of tubulin polymerization: B (B: 10-20%)

## O=S(=O)(Nc1ccc(Oc2ccccc2)cc1)c1c(F)c(F)c(F)c(F)c1F [Compound 4-2, 2,3,4,5,6-pentafluoro-N-(4-phenoxyphenyl)benzenesulfonamide]
MV-4-11
  IC50: 10 to 100 µM
MOLM-13
  IC50: 10 to 100 µM

## O=S(=O)(Nc1ccc(O)c(F)c1)c1c(F)c(F)c(F)c(F)c1F [Compound 4-3, 2,3,4,5,6-pentafluoro-N-(3-fluoro-4-hydroxyphenyl)benzenesulfonamide]
MV-4-11
  IC50: 0.1 to 10 µM
tubulin
  % inhibition of tubulin polymerization: A (A: < 10%)

## O=S(=O)(Nc1ccc(OC(F)F)c(F)c1)c1c(F)c(F)c(F)c(F)c1F [Compound 4-4, N-(4-(difluoromethoxy)-3-fluorophenyl)-2,3,4,5,6-pentafluorobenzenesulfonamide]
MV-4-11
  IC50: 0.1 to 10 µM
MOLM-13
  IC50: 0.1 to 10 µM
tubulin
  % inhibition of tubulin polymerization: B (B: 10-20%)

## N#Cc1ccc(NS(=O)(=O)c2c(F)c(F)c(F)c(F)c2F)cc1F [Compound 4-5, N-(4-cyano-3-fluorophenyl)-2,3,4,5,6-pentafluorobenzenesulfonamide]
MV-4-11
  IC50: 10 to 100 µM

## O=S(=O)(Nc1ccc(OCF)c(F)c1)c1c(F)c(F)c(F)c(F)c1F [Compound 4-6, 2,3,4,5,6-pentafluoro-N-(3-fluoro-4-(fluoromethoxy)phenyl)benzenesulfonamide]
MV-4-11
  IC50: 0.1 to 10 µM
K562
  IC50: 0.1 to 10 µM
MOLM-13
  IC50: 0.1 to 10 µM
tubulin
  % inhibition of tubulin polymerization: B (B: 10-20%)

## COc1ccc(N(C)S(=O)(=O)c2c(F)c(F)c(F)c(F)c2F)cc1F [Compound 4-12, 2,3,4,5,6-pentafluoro-N-(3-fluoro-4-methoxyphenyl)-N-methylbenzenesulfonamide]
K562
  IC50: 0.1 to 10 µM

## Nc1ncnc2c1c(-c1ccc(Oc3ccccc3)cc1)nn2[C@H]1CCCN(S(=O)(=O)c2c(F)c(F)c(F)c(F)c2F)C1 [Compound 5-2, (S)-1-(1-((perfluorophenyl)sulfonyl)piperidin-3-yl)-3-(4-phenoxyphenyl)-1H-pyrazolo[3,4-d]pyrimidin-4-amine]
BMX
  IC50: 0.1 to 10 nM

## Nc1ncnc2c1c(-c1ccc(Oc3ccccc3)cc1)nn2CCNS(=O)(=O)c1c(F)c(F)c(F)c(F)c1F [Compound 5-3, N-[2-[4-amino-3-(4-phenoxyphenyl)pyrazolo[3,4-d]pyrimidin-1-yl]ethyl]-2,3,4,5,6-pentafluoro-benzenesulfonamide]
[1]; 10 μM BTK KD
  C481 labelled by test compound (tryptic digest peptide): ✓
[1]; cysteine 527, 10 μM BTK KD
  C527 labelled by test compound (tryptic digest peptide): ✓
BMX
  IC50: 0.1 to 10 nM

## Nc1ncnc2c1c(-c1ccc(Oc3ccccc3)cc1)nn2[C@@H]1CCN(S(=O)(=O)c2c(F)c(F)c(F)c(F)c2F)C1 [Compound 5-5, (R)-1-(1-((perfluorophenyl)sulfonyl)pyrrolidin-3-yl)-3-(4-phenoxyphenyl)-1H-pyrazolo[3,4-d]pyrimidin-4-amine]
BTK
  IC50: 0.1 to 10 nM

## COCCOc1ccc(Nc2ncc(F)c(NCCNS(=O)(=O)c3c(F)c(F)c(F)c(F)c3F)n2)cc1 [Compound 5-13, 2,3,4,5,6-pentafluoro-N-(2-((5-fluoro-2-((4-(2-methoxyethoxy)phenyl)amino)pyrimidin-4-yl)amino)ethyl)benzenesulfonamide]
FGFR4
  IC50: > 2000 nM
FGFR1
  IC50: > 2000 nM
[1]; [2]
  amino acid of BTK modified by one equivalent of compound: Cys-481
  observed mass of modified tryptic peptide: 3059.4 Da
[1]; 10 μM BTK KD
  C481 labelled by test compound (tryptic digest peptide): ✓

## COCCOc1ccc(Nc2ncc(F)c(Nc3ccc(NS(=O)(=O)c4c(F)c(F)c(F)c(F)c4F)cc3)n2)cc1 [Compound 5-14, 2,3,4,5,6-pentafluoro-N-(4-((5-fluoro-2-((4-(2-methoxyethoxy)phenyl)amino)pyrimidin-4-yl)amino)phenyl)benzenesulfonamide]
FGFR4
  IC50: 10 to 300 nM
FGFR1
  IC50: 10 to 300 nM

## COCCOc1ccc(Nc2ncc(F)c(Nc3cccc(N(C)S(=O)(=O)c4c(F)c(F)c(F)c(F)c4F)c3)n2)cc1 [Compound 5-17, 2,3,4,5,6-pentafluoro-N-(3-((5-fluoro-2-((4-(2-methoxyethoxy)phenyl)amino)pyrimidin-4-yl)amino)phenyl)-N-methylbenzenesulfonamide]
BMX
  IC50: 0.1 to 10 nM

## Nc1ncnc2c1c(-c1ccc(Oc3ccccc3)cc1)nn2S(=O)(=O)c1c(F)c(F)c(F)c(F)c1F [Compound 5-19, 1-((perfluorophenyl)sulfonyl)-3-(4-phenoxyphenyl)-1H-pyrazolo[3,4-d]pyrimidin-4-amine]
BMX
  IC50: 10 to 300 nM
RL cells
  IC50: 1640 nM
